Values quoted from earlier work in patent US9918950B2, “Targeted treatment of anerobic cancer” (University Hospitals Cleveland Medical Center, priority 2012, dated 2018).

Experiments:
[1] = tested on: HCT116 human colon carcinoma cells; conditions: HCT116 window chamber tumors
[2] = tested on: 4T1 mouse mammary carcinoma cells; conditions: 4T1 window chamber tumors

Nc1n[n+]([O-])c2ccccc2[n+]1[O-] [tirapazamine]
time required for onset of incipient angiogenesis versus saline treatment ([1]; n=8, log-rank P=0.33): No significant difference | median time required for the initial hypoxic response ([1]; versus 3.5 days saline, Kaplan-Meier, n=8, P<0.001): 9.5 days | time required for incipient angiogenesis versus saline treatment ([2]; n=8, log-rank P=0.66): No significant difference | median time required for the initial hypoxic response ([2]; versus 4 days saline, n=8, P<0.05): 5.5 days
